{
  "source": "paper PMC2743263",
  "about": "(Nature chemical biology, 2009)",
  "key": {"[1]": {"target": "T1, cellular MTAN activity in V. cholerae N16961 (Vibrio cholerae serotype O1, UniProt Q9KPI8)", "T1 sequence (Q9KPI8 1-231)": "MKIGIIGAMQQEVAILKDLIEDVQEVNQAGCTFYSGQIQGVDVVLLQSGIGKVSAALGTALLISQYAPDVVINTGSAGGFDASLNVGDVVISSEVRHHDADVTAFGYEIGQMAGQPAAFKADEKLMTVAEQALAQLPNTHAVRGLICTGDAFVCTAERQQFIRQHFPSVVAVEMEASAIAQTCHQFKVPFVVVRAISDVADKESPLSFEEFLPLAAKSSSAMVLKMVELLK", "format": "cell-based", "settings": "cellular IC50 versus Ki*"}, "V. cholerae N16961": {"test_system": "V. cholerae N16961", "assay": "Growth of V. cholerae", "format": "cell-based, Vibrio cholerae"}, "E. coli O157:H7": {"test_system": "E. coli O157:H7", "assay": "Growth of E. coli", "format": "cell-based, Escherichia coli"}, "[2]": {"test_system": "autoinducer-2 production in E. coli O157:H7", "assay": "Autoinducer-2 production after prolonged incubation", "format": "cell-based, Escherichia coli", "settings": "E. coli O157:H7, LB, 26 generations, 1 μM; untreated 195-fold"}, "[3]": {"test_system": "autoinducer-2 production in V. cholerae N16961", "assay": "Autoinducer-2 production after prolonged incubation", "format": "cell-based, Vibrio cholerae", "settings": "V. cholerae N16961, LB, 26 generations, untreated 540-fold"}, "[4]": {"test_system": "autoinducer production by V. cholerae N16961", "assay": "microbe, parasite or virus in culture", "settings": "Vibrio cholerae, read-out: AI Inhibition IC50, BB170"}, "E. coli MTAN (EcMTAN)": {"test_system": "E. coli MTAN (EcMTAN)", "settings": "read-out: dissociation constant; cited from earlier work"}, "VcMTAN": {"target": "T2, VcMTAN (Vibrio cholerae serotype O1, UniProt Q9KPI8)", "T2 sequence (Q9KPI8 1-231)": "T1 sequence (Q9KPI8 1-231)", "assay": "VcMTAN substrate kinetics, loss of MTA at 274 nm", "format": "biochemical"}},
  "data": [
    {"smiles": "CCCCSC[C@H]1CN(Cc2c[nH]c3c(N)ncnc23)C[C@@H]1O", "note": "[BuT-DADMe-ImmA, 5′-butylthio-DADMe-ImmucillinA]", "values": [
      {"measurement": "increase above Ki* required to inhibit VcMTAN activity in the cell", "setting": "[1]", "result": 30, "unit": "fold"},
      {"measurement": "growth of cells in the biofilm assay", "setting": "V. cholerae N16961; V. cholerae N16961, 1 μM, static, 25 °C", "result": "did not inhibit growth"},
      {"measurement": "growth", "setting": "V. cholerae N16961; V. cholerae N16961, 26 generations, 1 or 2.5 μM", "result": "remained uninhibited"},
      {"measurement": "effect on cell growth (OD600)", "setting": "V. cholerae N16961; overnight culture, concentrations up to 1 μM", "result": "without affecting growth"},
      {"measurement": "growth of cells in the biofilm assay", "setting": "E. coli O157:H7; E. coli O157:H7, 1 μM, static, 25 °C", "result": "did not inhibit growth"},
      {"measurement": "growth", "setting": "E. coli O157:H7; E. coli O157:H7, 26 generations, 1 or 2.5 μM", "result": "remained uninhibited"},
      {"measurement": "growth", "setting": "E. coli O157:H7; E. coli O157:H7 and MTAN knockout strain, AB medium, up to 0.5 μM", "result": "no growth defects"},
      {"measurement": "light induction in BB170", "setting": "[2]", "result": 1.4, "unit": "fold"},
      {"measurement": "quorum sensing signal (light induction in BB170)", "setting": "[3]; 1 μM", "result": 4.2, "unit": "fold"},
      {"measurement": "quorum sensing signal (light induction in BB170)", "setting": "[3]; 2.5 μM", "result": 1.3, "unit": "fold"},
      {"measurement": "IC50", "setting": "[4]", "result": "1.4 ± 0.3", "unit": "nM"}
    ]},
    {"smiles": "CCSC[C@H]1CN(Cc2c[nH]c3c(N)ncnc23)C[C@@H]1O", "note": "[EtT-DADMe-ImmA, 5′-ethylthio-DADMe-ImmucillinA]", "values": [
      {"measurement": "IC50", "setting": "[4]", "result": "11 ± 2", "unit": "nM"}
    ]},
    {"smiles": "CSC[C@H]1CN(Cc2c[nH]c3c(N)ncnc23)C[C@@H]1O", "note": "[MT-DADMe-ImmA, 5′-methylthio-DADMe-ImmucillinA]", "values": [
      {"measurement": "Ki", "setting": "E. coli MTAN (EcMTAN)", "result": 0.002, "unit": "nM"},
      {"measurement": "IC50", "setting": "[4]", "result": "0.94 ± 0.13", "unit": "nM"}
    ]},
    {"smiles": "CSC[C@H]1O[C@@H](n2cnc3c(N)ncnc32)[C@H](O)[C@@H]1O", "note": "[MTA, methylthioadenosine]", "values": [
      {"measurement": "Km", "setting": "VcMTAN", "result": 3, "unit": "µM"},
      {"measurement": "kcat", "setting": "VcMTAN", "result": 2, "unit": "s⁻¹"}
    ]}
  ]
}
